The values that follow come from ChEMBL document CHEMBL5370523, “Clinically approved small-molecule drugs for the treatment of rheumatoid arthritis” (Eur J Med Chem, 2023).

Structures are written as SMILES.

In experiment [1] the target is T1, Prostaglandin G/H synthase 2 (Homo sapiens, UniProt P35354).
T1 sequence (P35354 whole entry): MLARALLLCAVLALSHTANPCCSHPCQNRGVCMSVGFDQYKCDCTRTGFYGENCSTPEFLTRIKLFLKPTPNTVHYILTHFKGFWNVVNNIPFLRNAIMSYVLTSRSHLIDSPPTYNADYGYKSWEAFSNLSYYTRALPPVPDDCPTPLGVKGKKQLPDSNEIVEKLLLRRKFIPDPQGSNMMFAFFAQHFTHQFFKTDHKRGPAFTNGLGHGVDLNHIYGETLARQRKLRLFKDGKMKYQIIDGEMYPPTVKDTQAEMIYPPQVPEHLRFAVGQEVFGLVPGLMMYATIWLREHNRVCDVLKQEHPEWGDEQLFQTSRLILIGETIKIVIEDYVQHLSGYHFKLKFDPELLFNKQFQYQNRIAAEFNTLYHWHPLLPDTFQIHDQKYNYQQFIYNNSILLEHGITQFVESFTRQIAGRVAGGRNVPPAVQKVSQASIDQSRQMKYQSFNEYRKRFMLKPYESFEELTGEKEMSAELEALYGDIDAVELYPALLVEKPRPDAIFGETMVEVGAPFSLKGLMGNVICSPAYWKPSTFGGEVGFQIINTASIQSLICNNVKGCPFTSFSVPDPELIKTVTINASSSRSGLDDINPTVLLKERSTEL

Experiment [2] concerns the target Prostaglandin G/H synthase 1 (Homo sapiens, UniProt P23219). Format: tissue-based, Blood.
Description: Inhibition of COX-1 in human whole blood preincubated for 60 mins followed by calcium ionophore A23187 addition and measured after 30 mins by radioimmunoassay
Experiment [3] deals with T1, Prostaglandin G/H synthase 2. Format: tissue-based, Blood.

Usually IC50 stands for the point on the concentration scale where inhibition reaches its midpoint. Read a low IC50 as greater potency.

Sequence of Prostaglandin G/H synthase 1 (P23219 whole entry): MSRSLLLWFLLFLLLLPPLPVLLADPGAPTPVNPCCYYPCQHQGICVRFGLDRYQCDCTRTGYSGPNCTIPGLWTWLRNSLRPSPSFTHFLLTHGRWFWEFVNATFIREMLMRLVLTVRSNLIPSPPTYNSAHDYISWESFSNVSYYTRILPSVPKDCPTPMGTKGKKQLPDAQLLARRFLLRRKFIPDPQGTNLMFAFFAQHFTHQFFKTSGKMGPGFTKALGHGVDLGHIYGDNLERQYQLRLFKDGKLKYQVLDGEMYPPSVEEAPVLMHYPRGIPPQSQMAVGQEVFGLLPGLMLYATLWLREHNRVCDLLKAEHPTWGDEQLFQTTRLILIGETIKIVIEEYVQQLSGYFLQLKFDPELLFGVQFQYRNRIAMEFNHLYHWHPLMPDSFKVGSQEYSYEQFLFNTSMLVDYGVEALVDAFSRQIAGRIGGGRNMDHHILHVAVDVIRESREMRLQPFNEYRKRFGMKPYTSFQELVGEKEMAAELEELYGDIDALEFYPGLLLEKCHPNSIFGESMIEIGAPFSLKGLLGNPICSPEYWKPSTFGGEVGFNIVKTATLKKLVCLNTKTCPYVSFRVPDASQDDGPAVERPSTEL

`O=C(O)CCc1nc(-c2ccccc2)c(-c2ccccc2)o1` [OXAPROZIN] came in with an IC50 in experiment [1] of 36000 nM. Regarding `Cc1ccc(C(=O)c2ccc(CC(=O)O)n2C)cc1` [TOLMETIN], the IC50 in experiment [2] was determined as 350 nM; in experiment [3] it was 820 nM.
